Measured values from patent US20150306226A1, “COMPOSITION” (RATIOPHARM GMBH, priority 2012, published 2015).
In brackets after ≈: the same amount, converted by molar mass.

Assay: solubility in aqueous buffer
Assay type: physicochemical
Details: aqueous buffer pH 7.4, room temperature
Procedure: Enantiomerically pure compound (I) has low solubility in aqueous solution. In aqueous buffer pH 7.4 the solubility measured at room temperature is about 0.01 mg/ml. Poor solubility typically leads to poor oral bioavailability, fed/fasted variations in bioavailability, cumbersome and inconvenient dosage forms, and may necessitate the use of harsh solubilising agents that are associated with adverse side effects.

Which solubility does the source give for CCOc1cc(C(CS(C)(=O)=O)N2C(=O)c3cccc(NC(C)=O)c3C2=O)ccc1OC (stereo not shown) [compound (I), N-[2-[1-(3-ethoxy-4-methoxyphenyl)-2-(methylsulfonyl)ethyl]-1,3-dioxo-2,3-dihydro-1H-isoindol-4-yl]acetamide] here?
Its solubility is ~10 µg/mL (≈ 21.7 µM).
